Literature values as cited in patent publication US20240325362A1, “NOVEL THERAPEUTIC METHOD FOR ENHANCING MITOCHONDRIAL FUNCTION, TREATING MITOCHONDRIAL DISEASES THEREBY, AND COMPOUNDS USED THEREIN” (STANDIGM INC., priority 2020, published 2024).

System: muscle mitochondrial function
Conditions: clinical study, as an NAD+ precursor

## Cc1cnc(C(=O)O)c[n+]1[O-] [acipimox]
  effect on muscle mitochondrial function: beneficial effect on muscle mitochondrial function
